The values below come from ChEMBL document CHEMBL5614420, “Development of peptoid-based heteroaryl-decorated histone deacetylase (HDAC) inhibitors with dual-stage antiplasmodial activity” (Eur J Med Chem, 2024).

A value given as a limit tells only on which side of the number the result lay.

The microsomal CLint is the rate of metabolic loss divided by the concentration. A low value points to slow turnover. Broadly, the IC50 is the concentration at which inhibition is half-maximal. As usually defined, the half-life is how long it takes for the measured level to halve.

Series [1] has as its system Plasmodium falciparum. Kind of series: Resistance index, ratio of IC50 for multidrug-resistant asexual ring-stage Plasmodium falciparum Dd2 infected in erythrocytes to IC50 for CQ-sensitive asexual ring-stage Plasmodium falciparum 3D7 infected in erythrocytes. In kind it is functional.
Series [2] in a line: in vitro. The note with it: human, liver microsomes. For orientation: Liver microsomes are vesicles of endoplasmic reticulum, rich in cytochrome P450 enzymes.
A short description of series [3]: Selectivity index, ratio of IC50 for HEK293 cells to IC50 for multidrug-resistant asexual ring-stage Plasmodium falciparum Dd2 infected in erythrocytes. The following applies: human.
Series [4] in a line: Cytotoxicity against HEK293 cells incubated for 24 hrs by Neutral Red Uptake assay. The note with it: human.
Series [5] concerns Plasmodium falciparum. The series is described as follows: Antiplasmodial activity against CQ-sensitive asexual ring-stage Plasmodium falciparum 3D7 infected in erythrocytes assessed as parasitic growth inhibition measured after 72 hrs by ELISA. In kind it is functional, organism-based. The following applies: 3D7, Erythrocyte.
The test system of series [6] is Plasmodium berghei. Kind of series: Antiplasmodial activity against exo-erythrocytic stage Plasmodium berghei sporozoites expressing ANKA-GFPLuc-SMCON infected in human HepG2-A16-CD81 cells expressing EGFP assessed as parasitic growth inhibition by […]. In kind it is functional, organism-based.
Series [7] in a line: Selectivity index, ratio of IC50 for HEK293 cells to IC50 for exo-erythrocytic stage Plasmodium berghei sporozoites expressing GFP-Luc fused genes infected in human HepG2-A16-CD81 cells expressing EGFP. In kind it is toxicity, cell-based. The following applies: read-out: Ratio IC50.
A short description of series [8]: in vitro. The note with it: human, liver microsomes. This is another data set of the same source.
Series [9] has as its system Plasmodium falciparum. The series is described as follows: Antiplasmodial activity against multidrug-resistant asexual ring-stage Plasmodium falciparum Dd2 infected in erythrocytes assessed as parasitic growth inhibition measured after 72 hrs by ELISA. In kind it is functional, organism-based. The following applies: Dd2, Erythrocyte. On the technique in general: In an ELISA, binding on a coated surface is turned into a signal by an enzyme label.

Series [10] can be described thus: Selectivity index, ratio of IC50 for HEK293 cells to IC50 for CQ-sensitive asexual ring-stage Plasmodium falciparum 3D7 infected in erythrocytes. The following applies: human.
Series [11] deals with Plasmodium berghei. The series is described as follows: Antiplasmodial activity against exo-erythrocytic stage Plasmodium berghei sporozoites expressing GFP-Luc fused genes infected in human HepG2-A16-CD81 cells expressing EGFP assessed as parasitic growth inhibition measured for 20 hrs by Bright-Glo Luciferase Assay. In kind it is functional, organism-based. The following applies: HepG2-A16-CD81, 20 h.

The subject of series [12] is Plasmodium falciparum. The series is described as follows: Antiplasmodial activity against synchronous ring-stage Plasmodium falciparum Dd2 infected in human erythrocytes assessed as parasitic growth inhibition measured after 48 hrs by [3H]hypoxanthine incorporation assay. The following applies: Dd2, Erythrocyte. In kind it is functional, organism-based.
The nature of series [13]: Cytotoxicity against human NFF cells incubated for 72 hrs by SRB assay.
Series [14] relates to Plasmodium falciparum. The series is described as follows: Antiplasmodial activity against synchronous ring-stage Plasmodium falciparum 3D7 infected in human erythrocytes assessed as parasitic growth inhibition measured after 48 hrs by [3H]hypoxanthine incorporation assay. In kind it is functional, organism-based. The note with it: 3D7, Erythrocyte.
Series [15] in a line: Selectivity index, ratio of IC50 for human NFF cells to IC50 for synchronous ring-stage Plasmodium falciparum 3D7 infected in human erythrocytes.

As to `CC(C)c1ccc(C(=O)N(CC(=O)NCc2ccccc2)Cc2ccc(C(=O)NO)cc2)cc1`, the “Ratio IC50” value with Plasmodium falciparum [1] was 4. Moreover, in “in vitro [2]”, the microsomal CLint at 1 h, 1 µM was determined as 112 µL/min/mg. Also, the selectivity ratio came out at 284 in series [3], 4310 in series [7] and 1100 in series [10]. Further, in series [4], the IC50 at 24 h stood at 69000 nM. Also, the values for the IC50 in the series on Plasmodium falciparum [5], in the series with Plasmodium berghei [6] and with Plasmodium falciparum [9] were 63 nM, 16 nM and 243 nM, respectively. Also, the half-life at 1 h, 1 µM in the series “in vitro [8]” was 12.4 min.

As for `O=C1C(O)=C([C@H]2CC[C@H](c3ccc(Cl)cc3)CC2)C(=O)c2ccccc21` [ATOVAQUONE], the IC50 with Plasmodium berghei [11] was less than 0.051 nM.

Turning to `O=C(/C=C/c1cccc(S(=O)(=O)Nc2ccccc2)c1)NO` [BELINOSTAT], the figures for the IC50 in the series on Plasmodium falciparum [12] and with Plasmodium falciparum [14] were 130 nM and 60 nM, respectively. In series [13], this molecule had an IC50 at 72 h of 2370 nM. In series [15], the selectivity ratio amounted to 40.

Turning to `CCN(CC)CCCC(C)Nc1ccnc2cc(Cl)ccc12` (configuration not stated) [CHLOROQUINE], inhibition in series [4] was half-maximal at 265000 nM (IC50 at 24 h).

Regarding `Cc1[nH]c2ccccc2c1CCNCc1ccc(/C=C/C(=O)NO)cc1` [PANOBINOSTAT], the IC50 in the series on Plasmodium falciparum [12] was 30 nM; in the series with Plasmodium falciparum [14], 10 nM. The molecule also gave a half-maximal inhibitory concentration (IC50) at 72 h in series [13] of 70 nM. In series [15], the selectivity ratio was 7.

In turn, `C/C=C1\NC(=O)[C@H]2CSSCC/C=C/[C@H](CC(=O)N[C@H](C(C)C)C(=O)N2)OC(=O)[C@H](C(C)C)NC1=O` [ROMIDEPSIN] had an IC50 at 72 h in series [13] of 1 nM. The selectivity ratio in [15] was less than 1.
